Source: patent publication US20240252454A1, “COMPOSITION COMPRISING AN INHIBITOR OF MITOCHONDRIAL TRANSCRIPTION” (LEAD DISCOVERY CENTER GMBH, priority 2021, published 2024)

Columns and labels:
Test in all cases: SRB assay, IMT combined with inhibitor
Assay type in all cases: cell-based
[1] = system: LOVO; conditions: LOVO (colon); concentration series of the labelled inhibitor + fixed concentration of IMT (3S)-1-[(2R)-2-[4-(2-chloro-4-fluoro-phenyl)-2-oxo-chromen-7-yl]oxypropanoyl]piperidine-3-carboxylic acid (Table 3: 40 nM, 120 h); negative=synergistic, positive=antagonistic
How it was run: (§1)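 Combination growth assay: MAPK signalling SOC titration on a background of 40 nM chromenone piperidine-3-carboxylic acid, 120 h, physiological 5 mM glucose, SRB read-out relative to untreated cells.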

[2] = system: HT29; conditions: HT29 (colon); concentration series of the labelled inhibitor + fixed concentration of IMT (3S)-1-[(2R)-2-[4-(2-chloro-4-fluoro-phenyl)-2-oxo-chromen-7-yl]oxypropanoyl]piperidine-3-carboxylic acid (Table 3: 40 nM, 120 h); negative=synergistic, positive=antagonistic
How it was run: as §1

[3] = system: SKOV3; conditions: SKOV3 (ovary); concentration series of the labelled inhibitor + fixed concentration of IMT (3S)-1-[(2R)-2-[4-(2-chloro-4-fluoro-phenyl)-2-oxo-chromen-7-yl]oxypropanoyl]piperidine-3-carboxylic acid (Table 3: 40 nM, 120 h); negative=synergistic, positive=antagonistic
How it was run: as §1

[4] = system: MIAPACA2; conditions: MIAPACA2 (pancreas); concentration series of the labelled inhibitor + fixed concentration of IMT (3S)-1-[(2R)-2-[4-(2-chloro-4-fluoro-phenyl)-2-oxo-chromen-7-yl]oxypropanoyl]piperidine-3-carboxylic acid (Table 3: 40 nM, 120 h); negative=synergistic, positive=antagonistic
How it was run: as §1

[5] = system: SW620; conditions: SW620 (colon); concentration series of the labelled inhibitor + fixed concentration of IMT (3S)-1-[(2R)-2-[4-(2-chloro-4-fluoro-phenyl)-2-oxo-chromen-7-yl]oxypropanoyl]piperidine-3-carboxylic acid (Table 3: 40 nM, 120 h); negative=synergistic, positive=antagonistic
How it was run: as §1

[6] = system: GRANTA-519; conditions: GRANTA-519 (hematological); concentration series of the labelled inhibitor + fixed concentration of IMT (3S)-1-[(2R)-2-[4-(2-chloro-4-fluoro-phenyl)-2-oxo-chromen-7-yl]oxypropanoyl]piperidine-3-carboxylic acid (Table 3: 40 nM, 120 h); negative=synergistic, positive=antagonistic
How it was run: as §1

[7] = system: A549; conditions: A549 (lung); concentration series of the labelled inhibitor + fixed concentration of IMT (3S)-1-[(2R)-2-[4-(2-chloro-4-fluoro-phenyl)-2-oxo-chromen-7-yl]oxypropanoyl]piperidine-3-carboxylic acid (Table 3: 40 nM, 120 h); negative=synergistic, positive=antagonistic
How it was run: as §1

[8] = system: IMR90; conditions: IMR90 (lung); concentration series of the labelled inhibitor + fixed concentration of IMT (3S)-1-[(2R)-2-[4-(2-chloro-4-fluoro-phenyl)-2-oxo-chromen-7-yl]oxypropanoyl]piperidine-3-carboxylic acid (Table 3: 40 nM, 120 h); negative=synergistic, positive=antagonistic
How it was run: as §1

[9] = system: BXPC3; conditions: BXPC3 (pancreas); concentration series of the labelled inhibitor + fixed concentration of IMT (3S)-1-[(2R)-2-[4-(2-chloro-4-fluoro-phenyl)-2-oxo-chromen-7-yl]oxypropanoyl]piperidine-3-carboxylic acid (Table 3: 40 nM, 120 h); negative=synergistic, positive=antagonistic
How it was run: as §1

[10] = system: COLO205; conditions: COLO205 (colon); concentration series of the labelled inhibitor + fixed concentration of IMT (3S)-1-[(2R)-2-[4-(2-chloro-4-fluoro-phenyl)-2-oxo-chromen-7-yl]oxypropanoyl]piperidine-3-carboxylic acid (Table 3: 40 nM, 120 h); negative=synergistic, positive=antagonistic
How it was run: as §1

[11] = system: HCT15; conditions: HCT15 (colon); concentration series of the labelled inhibitor + fixed concentration of IMT (3S)-1-[(2R)-2-[4-(2-chloro-4-fluoro-phenyl)-2-oxo-chromen-7-yl]oxypropanoyl]piperidine-3-carboxylic acid (Table 3: 40 nM, 120 h); negative=synergistic, positive=antagonistic
How it was run: as §1

[12] = system: PANC1; conditions: PANC1 (pancreas); concentration series of the labelled inhibitor + fixed concentration of IMT (3S)-1-[(2R)-2-[4-(2-chloro-4-fluoro-phenyl)-2-oxo-chromen-7-yl]oxypropanoyl]piperidine-3-carboxylic acid (Table 3: 40 nM, 120 h); negative=synergistic, positive=antagonistic
How it was run: as §1

[13] = system: A673; conditions: A673 (muscle); concentration series of the labelled inhibitor + fixed concentration of IMT (3S)-1-[(2R)-2-[4-(2-chloro-4-fluoro-phenyl)-2-oxo-chromen-7-yl]oxypropanoyl]piperidine-3-carboxylic acid (Table 3: 40 nM, 120 h); negative=synergistic, positive=antagonistic
How it was run: as §1

[14] = system: SKMEL28; conditions: SKMEL28 (skin); concentration series of the labelled inhibitor + fixed concentration of IMT (3S)-1-[(2R)-2-[4-(2-chloro-4-fluoro-phenyl)-2-oxo-chromen-7-yl]oxypropanoyl]piperidine-3-carboxylic acid (Table 3: 40 nM, 120 h); negative=synergistic, positive=antagonistic
How it was run: as §1

Compound	difference between the calculated combinatorial index (BLISS) and the observed combinatorial effect [1]	difference between the calculated combinatorial index (BLISS) and the observed combinatorial effect [2]	difference between the calculated combinatorial index (BLISS) and the observed combinatorial effect [3]	difference between the calculated combinatorial index (BLISS) and the observed combinatorial effect [4]	difference between the calculated combinatorial index (BLISS) and the observed combinatorial effect [5]	difference between the calculated combinatorial index (BLISS) and the observed combinatorial effect [6]	difference between the calculated combinatorial index (BLISS) and the observed combinatorial effect [7]	difference between the calculated combinatorial index (BLISS) and the observed combinatorial effect [8]	difference between the calculated combinatorial index (BLISS) and the observed combinatorial effect [9]	difference between the calculated combinatorial index (BLISS) and the observed combinatorial effect [10]	difference between the calculated combinatorial index (BLISS) and the observed combinatorial effect [11]	difference between the calculated combinatorial index (BLISS) and the observed combinatorial effect [12]	difference between the calculated combinatorial index (BLISS) and the observed combinatorial effect [13]	difference between the calculated combinatorial index (BLISS) and the observed combinatorial effect [14]
Cc1cc(C(=O)NOCCO)c(Nc2ccc(I)cc2F)n(C)c1=O [AZD8330, 2-((2-Fluoro-4-iodophenyl)amino)-N-(2-hydroxyethoxy)-1,5-dimethyl-6-oxo-1,6-dihydropyridine-3-carboxamide]	0.0047	0.0488	−0.0609	0.1347	−0.0037	−0.0506	−0.0341	0.0338	0.0756	0.0127	0.1028	0.0157	−0.0047	0.0300
COc1c(OCCCN2CCOCC2)ccc2c1N=C(NC(=O)c1cnc(N)nc1)N1CCN=C21 [BAY 80-6946, 2-Amino-N-{7-methoxy-8-[3-(4-morpholinyl)propoxy]-2,3-dihydroimidazo[1,2-c]quinazolin-5-yl}-5-pyrimidinecarboxamide]	−0.0178	0.0613	0.0112	0.0574	−0.0651	0.0631	0.0159	0.0281	−0.0082	0.0531	0.1444	0.0174	0.0259	−0.0068
O=C(c1ccc(F)c(F)c1Nc1ccc(I)cc1F)N1CC(O)([C@@H]2CCCCN2)C1 [Cobimetinib]	−0.0754	0.0382	0.0499	−0.0673	−0.0609	−0.0008	−0.0490	−0.0073	0.0204	0.0185	0.0539	0.0747	0.0185	−0.0040
CC(C)(C)c1nc(-c2cccc(NS(=O)(=O)c3c(F)cccc3F)c2F)c(-c2ccnc(N)n2)s1 [Dabrafenib]	−0.0384	0.0360	0.0282	0.0508	−0.0699	−0.0357	−0.0892	−0.0104	0.0251	−0.0114	0.0551	0.0029	−0.0146	0.0194
